Laboratory results as given in patent US20230172946A1, “In-situ Gel Forming Ophthalmic Formulations Containing Difluprednate” (IVIEW Therapeutics, Inc., priority 2019, published 2023).

Tests used:
[1] = cited from earlier work
[2] = Solubility of difluprednate with different surfactants/solubilizers; assay type: physicochemical
Method: To improve the solubility of difluprednate, different surfactants/solubilizers were investigated to discover suitable solubilizers. Different surfactants/solubilizers such as Poloxamer 188, Poloxamer 407, polysorbate 80, PEG 40 Caster Oil, PEG 60 Caster Oil, PEG 40 Hydrogenated Castor Oil, Polyoxyl 40 Stearate and Soluplus was dissolved in water with different concentrations. Difluprednate was added into the surfactant solutions with the final difluprednate concentration of 0.05%. The solubility of difluprednate was measured. […] Soluplus is a polyethylene glycol, polyvinyl acetate and polyvinylcaprolactame-based graft copolymer (PVAc-PVCap-PEG). It can form nanomicelles in water or other aqueous solutions, and solubilize poorly soluble difluprednate.

With `CCCC(=O)O[C@]1(C(=O)COC(C)=O)CC[C@H]2[C@@H]3C[C@H](F)C4=CC(=O)C=C[C@]4(C)[C@@]3(F)[C@@H](O)C[C@@]21C` [Difluprednate] as the compound, how does the solubility in water [1] read?
Its solubility in water is “practically insoluble in water”.

What about the solubility of difluprednate ([2]; 5% Polyoxyethylene Castor Oil (RL-40)) of the same compound?
The solubility of difluprednate was > 98%.

And the Solubility % ([2]; Benzyl Benzoate 2% in water, difluprednate 0.05%)?
Its Solubility % is 0.37%.

What about the Solubility % ([2]; Glyceryl Tricaprylate 0.2% in water, difluprednate 0.05%) of the same compound?
The Solubility % was 0.84%.

What about the Solubility % ([2]; Hypromellose 0.5% in water, difluprednate 0.05%) of the same compound?
Its Solubility % is 17.6%.

What about the Solubility % ([2]; Poloxamer188 0.1% in water, difluprednate 0.05%) of the same compound?
The Solubility % was 3.59%.

What about the Solubility % ([2]; Poloxamer 407 0.2% in water, difluprednate 0.05%) of the same compound?
The Solubility % was 2.20%.

And the Solubility % ([2]; Polyoxyethylene (23) Cetyl Ether 0.2% in water, difluprednate 0.05%)?
Its Solubility % is 7.87%.

And the Solubility % ([2]; Polyoxyethylene (23) Cetyl Ether 0.45% in water, difluprednate 0.05%)?
The Solubility % was 15.41%.

And the Solubility % ([2]; Polyoxyethylene (23) Cetyl Ether 1.0% in water, difluprednate 0.05%)?
The Solubility % was 33.70%.

What about the Solubility % ([2]; Polyoxyethylene (40) Monostearate 0.5% in water, difluprednate 0.05%) of the same compound?
Its Solubility % is 42.0%.

What about the Solubility % ([2]; Polyoxyethylene (40) Stearate 7.0% in water, difluprednate 0.05%) of the same compound?
Its Solubility % is 5.1%.

What about the Solubility % ([2]; Polyoxyethylene (60) Castor Oil 5.0% in water, difluprednate 0.05%) of the same compound?
The Solubility % was 95.3%.

And the solubility of difluprednate ([2]; Polyoxyethylene (60) Castor Oil, at least 4 or 5% needed)?
The solubility of difluprednate was > 95%.

What about the Solubility % ([2]; Polyoxyethylene Castor Oil (EL) 5.0% in water, difluprednate 0.05%) of the same compound?
The Solubility % was 93.5%.

What about the Solubility % ([2]; Polyoxyethylene Castor Oil (EL-35) 5.0% in water, difluprednate 0.05% (second entry, r27)) of the same compound?
Its Solubility % is 96.3%.

What about the solubility of difluprednate ([2]; Polyoxyethylene Castor Oil (EL-35), at least 4 or 5% needed) of the same compound?
Its solubility of difluprednate is > 95%.

What about the Solubility % ([2]; Polyoxyethylene Castor Oil (EL-40) 5.0% in water, difluprednate 0.05%) of the same compound?
The Solubility % was >98.0%.

What about the Solubility % ([2]; Polyoxyethylene Hydrogenated Castor Oil (RH-40) 0.53% in water, difluprednate 0.05%) of the same compound?
Its Solubility % is 9.7%.

And the Solubility % ([2]; Polyoxyethylene Hydrogenated Castor Oil (RH-40) 1.0% in water, difluprednate 0.05%)?
Its Solubility % is 18.6%.

What about the Solubility % ([2]; Polyoxyethylene Hydrogenated Castor Oil (RH-40) 2.0% in water, difluprednate 0.05%) of the same compound?
The Solubility % was 50.0%.

What about the Solubility % ([2]; Polyoxyethylene Hydrogenated Castor Oil (RH-40) 3.0% in water, difluprednate 0.05%) of the same compound?
Its Solubility % is 73.1%.

What about the Solubility % ([2]; Polyoxyethylene Hydrogenated Castor Oil (RH-40) 4.0% in water, difluprednate 0.05%) of the same compound?
Its Solubility % is 88.1%.

What about the Solubility % ([2]; Polyoxyethylene Hydrogenated Castor Oil (RH-40) 5.0% in water, difluprednate 0.05%) of the same compound?
The Solubility % was 99.5%.

What about the Solubility % ([2]; Polyoxyethylene castor oil (EL-35) 5.0% in water, difluprednate 0.05% (first entry, r11)) of the same compound?
Its Solubility % is 82.9%.

What about the Solubility % ([2]; Polyoxyl 20 Cetostearyl Ether 1.0% in water, difluprednate 0.05%) of the same compound?
The Solubility % was 37.2%.

And the Solubility % ([2]; Polyoxyl 20 Cetostearyl Ether 2.0% in water, difluprednate 0.05%)?
Its Solubility % is 74.7%.

And the Solubility % ([2]; Polyoxyl 20 Cetostearyl Ether 3.0% in water, difluprednate 0.05%)?
The Solubility % was 79.9%.

And the Solubility % ([2]; Polyoxyl 20 Cetostearyl Ether 4.0% in water, difluprednate 0.05%)?
Its Solubility % is 96.9%.

And the Solubility % ([2]; Polyoxyl 20 Cetostearyl Ether 5.0% in water, difluprednate 0.05%)?
The Solubility % was 96.9%.

What about the Solubility % ([2]; Polysorbate 80 0.05% in water, difluprednate 0.05%) of the same compound?
The Solubility % was 1.75%.

And the Solubility % ([2]; Soluplus 0.9% in water, difluprednate 0.05%)?
The Solubility % was 101.9%.

And the Solubility % ([2]; Soluplus 1.2% in water, difluprednate 0.05%)?
The Solubility % was 102.1%.

What about the Solubility % ([2]; Soluplus 1.5% in water, difluprednate 0.05%) of the same compound?
The Solubility % was 102.1%.

What about the Solubility % ([2]; Sucrose Fatty Acid Ester 0.2% in water, difluprednate 0.05%) of the same compound?
The Solubility % was 2.01%.

And the Solubility % ([2]; Sucrose Fatty Acid Ester 1.0% in water, difluprednate 0.05%)?
Its Solubility % is 8.36%.

And the Solubility % ([2]; Vitamin E Polyethylene Glycol Succinate 0.5% in water, difluprednate 0.05%)?
Its Solubility % is 25.3%.
